Reference: ChEMBL document CHEMBL1201862, “PubChem BioAssay data set” (2004)
Structures can show the parent of a compound that is named as a salt. Activity calls are given as the source filed them.

Assays:
[1] = biological target: Ion channel NompC (Danio rerio, UniProt Q7T1G6); assay: Fluorescence counterscreen assay for TRPML3 agonists: dose response cell-based high-throughput screening assay to identify agonists of the transient receptor potential channel N1 (TRPN1). [Related pubchem assays: 1526, 1424, 1448 ]; format: functional
[2] = biological target: T1, Mucolipin-3 (Homo sapiens, UniProt Q8TDD5); assay: Dose response cell-based high-throughput screening assay for agonists of the transient receptor potential channel ML3 (TRPML3). [Related pubchem assays: 1526, 1424, 1448 ]; format: functional
T1 sequence (Q8TDD5 whole entry): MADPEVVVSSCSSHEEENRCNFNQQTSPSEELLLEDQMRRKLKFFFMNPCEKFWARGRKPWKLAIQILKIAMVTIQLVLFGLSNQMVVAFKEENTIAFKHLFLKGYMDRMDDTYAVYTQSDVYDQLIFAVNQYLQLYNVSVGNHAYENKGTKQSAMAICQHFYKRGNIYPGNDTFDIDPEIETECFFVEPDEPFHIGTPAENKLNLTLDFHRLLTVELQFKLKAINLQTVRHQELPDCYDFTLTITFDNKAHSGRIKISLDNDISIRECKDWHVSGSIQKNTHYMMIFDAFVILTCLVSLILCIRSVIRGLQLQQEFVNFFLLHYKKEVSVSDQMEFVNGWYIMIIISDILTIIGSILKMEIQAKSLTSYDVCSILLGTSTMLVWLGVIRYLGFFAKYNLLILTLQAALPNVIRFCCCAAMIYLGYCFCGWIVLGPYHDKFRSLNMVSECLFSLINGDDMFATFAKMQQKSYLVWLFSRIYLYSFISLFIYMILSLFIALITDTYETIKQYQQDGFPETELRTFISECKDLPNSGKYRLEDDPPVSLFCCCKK

[3] = A cytotoxicity screen of small molecule inhibitors of the PhoP region in Salmonella typhi identified in the primary screen. [Related pubchem assays: 1850, 1864, 1985 ]; format: functional
[4] = biological target: T2, Heat shock factor protein 1 (Mus musculus, UniProt P38532); assay: decrease of HSF1-responsive luciferase luminescence – cell-based, NIH3T3, dose retest, confirmation (AID 2382); format: functional;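 further: NIH3T3 fibroblasts with HSF1-driven luciferase reporter stressed by proteasome inhibitor MG132; luminescence from HSF1-driven luciferase expression after 8 hours of MG132 stress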
T2 sequence (P38532 whole entry): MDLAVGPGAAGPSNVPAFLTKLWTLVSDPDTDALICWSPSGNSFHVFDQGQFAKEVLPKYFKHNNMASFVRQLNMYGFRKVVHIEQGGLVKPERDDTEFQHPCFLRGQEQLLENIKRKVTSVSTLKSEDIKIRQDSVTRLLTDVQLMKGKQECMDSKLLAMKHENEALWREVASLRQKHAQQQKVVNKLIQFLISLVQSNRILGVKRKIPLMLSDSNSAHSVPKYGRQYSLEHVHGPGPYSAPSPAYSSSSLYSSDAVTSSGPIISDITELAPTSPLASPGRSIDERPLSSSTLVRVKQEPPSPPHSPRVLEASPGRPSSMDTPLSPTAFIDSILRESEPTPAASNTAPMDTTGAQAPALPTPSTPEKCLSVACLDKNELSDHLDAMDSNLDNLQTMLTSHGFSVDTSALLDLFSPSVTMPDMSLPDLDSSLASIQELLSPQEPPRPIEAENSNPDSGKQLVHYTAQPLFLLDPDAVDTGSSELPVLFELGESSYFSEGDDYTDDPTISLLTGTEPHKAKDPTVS

[5] = biological target: DNA dC->dU-editing enzyme APOBEC-3G (Homo sapiens, UniProt Q9HC16); assay: Dose Response confirmation of small molecule APOBEC3G DNA Deaminase Inhibitors via a fluorescence-based single-stranded DNA deaminase assay. [Related pubchem assays (depositor defined):AID493012, AID493028]; format: functional
[6] = HEK-293T cell viability reduction – luminescence, B-cell screen hits, cytotoxicity control for BCR NF-kB inhibitor project, dose response (AID 489021); format: functional, cell-based;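 further: HEK-293T cells carrying an NF-kB luciferase reporter; cells exposed to compound for about 14 hours before viability readout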
[7] = biological target: Induced myeloid leukemia cell differentiation protein Mcl-1 (Homo sapiens, UniProt Q07820); format: functional
[8] = tested on: Streptococcus; assay: GAS UMAA2166 growth inhibition – luminescence, BacTiterGlo, counter-screen for streptokinase expression inhibitor project, dose response (AID 1915); format: functional, organism-based;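 further: potency for reduction of bacterial viability or growth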
[9] = biological target: T3, Streptokinase A (Streptococcus pyogenes serotype M1, UniProt P10520); assay: viability-normalized secreted streptokinase activity reduction – plasminogen activation absorbance, OD405, dose response (AID 1914); format: functional, Streptococcus pyogenes M1 GAS;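 further: secreted streptokinase activity via plasminogen activation per viability signal from cell pellet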
T3 sequence (P10520 whole entry): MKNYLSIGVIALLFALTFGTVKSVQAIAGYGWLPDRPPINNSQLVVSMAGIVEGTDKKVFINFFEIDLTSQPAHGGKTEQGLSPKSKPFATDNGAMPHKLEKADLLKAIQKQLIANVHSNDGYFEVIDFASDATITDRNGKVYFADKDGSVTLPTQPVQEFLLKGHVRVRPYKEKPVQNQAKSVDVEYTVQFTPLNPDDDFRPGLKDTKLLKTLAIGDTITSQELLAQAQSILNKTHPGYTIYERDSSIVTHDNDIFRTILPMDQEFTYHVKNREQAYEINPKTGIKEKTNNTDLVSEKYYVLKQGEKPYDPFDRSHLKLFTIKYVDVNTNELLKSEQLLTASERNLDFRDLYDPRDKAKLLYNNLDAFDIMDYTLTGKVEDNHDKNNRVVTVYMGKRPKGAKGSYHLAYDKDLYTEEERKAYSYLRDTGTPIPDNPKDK

[10] = tested on: Streptococcus sp. 'group A'; assay: Streptococcus pyogenes SK(-)GAS viability under kanamycin – luminescence, BacTiterGlo, confirmation, counter-screen for streptokinase expression inhibitor project, dose response (AID 1900); format: functional, organism-based
[11] = Luminescence Cell-Based Dose Retest to Confirm Inhibitors of Cancer Stem Cells. [Related pubchem assays (depositor defined):AID2717, AID2721]; format: functional; conditions: Homo sapiens
[12] = biological target: Eukaryotic translation initiation factor 4E (Mus musculus, UniProt P63073); assay: blockers of eIF4G binding by eIF4E – biochemical, TR-FRET, dose response (AID 855); format: functional;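 further: potency for disrupting eIF4E binding to eIF4GI seen as loss of FRET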
[13] = biological target: T4, Carboxy-terminal domain RNA polymerase II polypeptide A small phosphatase 1 (Homo sapiens, UniProt Q9GZU7); assay: CTDSP1 inhibitors, concentration-response, biochemical, absorbance readout, ultra-high-throughput screen actives (AID 540297); format: functional
T4 sequence (Q9GZU7 whole entry): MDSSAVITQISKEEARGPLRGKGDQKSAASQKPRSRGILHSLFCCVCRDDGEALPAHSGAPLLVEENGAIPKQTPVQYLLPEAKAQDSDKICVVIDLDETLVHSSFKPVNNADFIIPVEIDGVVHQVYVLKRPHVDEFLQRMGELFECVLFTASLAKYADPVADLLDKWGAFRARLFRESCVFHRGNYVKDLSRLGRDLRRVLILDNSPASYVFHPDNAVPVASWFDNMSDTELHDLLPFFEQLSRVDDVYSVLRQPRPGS

[14] = biological target: T5, Caspase-6 (Homo sapiens, UniProt P55212); assay: inhibition of CASP6 peptide cleavage – biochemical, VEID-R110 fluorescence, cherry-pick, dose response (AID 720632)
T5 sequence (P55212 whole entry): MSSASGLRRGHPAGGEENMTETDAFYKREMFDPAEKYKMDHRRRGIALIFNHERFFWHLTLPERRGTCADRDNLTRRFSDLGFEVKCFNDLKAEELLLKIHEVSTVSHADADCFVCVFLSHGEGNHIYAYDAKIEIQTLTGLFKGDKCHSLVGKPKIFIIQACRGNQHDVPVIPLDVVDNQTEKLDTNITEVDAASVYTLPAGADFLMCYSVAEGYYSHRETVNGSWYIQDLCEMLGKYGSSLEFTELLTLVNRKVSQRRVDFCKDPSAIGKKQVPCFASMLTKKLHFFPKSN

[15] = biological target: Large T antigen (Simian virus 40, UniProt P03070); format: functional, Betapolyomavirus macacae;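 further: Confirmatory-stage PubChem screen for compounds that inhibit SV40 T antigen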
[16] = biological target: FAD-linked sulfhydryl oxidase ALR (Homo sapiens, UniProt P55789); assay: ALR-catalysed DTT oxidation blockers – biochemical, H2O2 detection, luminescence, cherry-pick, dose response (AID 493248)
[17] = biological target: Cytochrome P450 2D6 (Homo sapiens, UniProt P10635);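 further: CYP2D6 member of a cytochrome P450 panel assay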
[18] = biological target: T6, Short transient receptor potential channel 4 (Mus musculus, UniProt Q9QUQ5); assay: calcium entry via TRPC4 opening agents – cell-based, HEK293 TRPC4/mu-opioid, Fluo-4 calcium, dose response (AID 434937); format: functional
T6 sequence (Q9QUQ5 whole entry): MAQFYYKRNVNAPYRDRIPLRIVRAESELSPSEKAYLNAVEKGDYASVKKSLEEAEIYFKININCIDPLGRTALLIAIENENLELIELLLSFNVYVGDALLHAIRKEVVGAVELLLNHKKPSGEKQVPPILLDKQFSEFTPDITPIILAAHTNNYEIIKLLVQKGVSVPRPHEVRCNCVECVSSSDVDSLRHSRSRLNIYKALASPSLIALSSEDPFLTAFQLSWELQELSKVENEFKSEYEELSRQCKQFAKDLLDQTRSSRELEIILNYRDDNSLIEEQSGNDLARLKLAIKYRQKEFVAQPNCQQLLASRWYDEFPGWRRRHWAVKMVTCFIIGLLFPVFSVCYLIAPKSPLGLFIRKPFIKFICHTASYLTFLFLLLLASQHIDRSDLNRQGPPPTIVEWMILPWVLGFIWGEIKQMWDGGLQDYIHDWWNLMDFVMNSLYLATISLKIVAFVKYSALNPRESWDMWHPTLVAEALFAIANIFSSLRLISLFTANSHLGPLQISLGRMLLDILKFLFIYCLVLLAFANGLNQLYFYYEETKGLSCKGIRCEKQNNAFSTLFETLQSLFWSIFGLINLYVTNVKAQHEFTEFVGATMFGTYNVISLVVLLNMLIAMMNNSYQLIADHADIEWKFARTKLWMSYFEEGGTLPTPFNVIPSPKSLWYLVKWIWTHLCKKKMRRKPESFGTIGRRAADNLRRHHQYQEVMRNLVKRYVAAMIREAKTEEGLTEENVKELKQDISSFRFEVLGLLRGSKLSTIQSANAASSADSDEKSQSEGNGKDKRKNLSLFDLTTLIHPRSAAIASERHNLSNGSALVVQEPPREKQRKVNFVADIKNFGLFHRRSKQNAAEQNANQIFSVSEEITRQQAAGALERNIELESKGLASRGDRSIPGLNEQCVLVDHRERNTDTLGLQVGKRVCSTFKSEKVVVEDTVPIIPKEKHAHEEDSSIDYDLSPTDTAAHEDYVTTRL

Sequence of Eukaryotic translation initiation factor 4E (P63073 whole entry, the tested form may be a part): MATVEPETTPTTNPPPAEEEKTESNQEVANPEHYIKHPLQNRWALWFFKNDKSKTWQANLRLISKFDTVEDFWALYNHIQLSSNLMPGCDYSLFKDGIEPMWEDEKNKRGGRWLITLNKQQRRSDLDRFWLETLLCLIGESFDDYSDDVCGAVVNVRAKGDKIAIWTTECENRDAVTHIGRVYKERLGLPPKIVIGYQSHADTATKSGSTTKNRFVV
Sequence of Induced myeloid leukemia cell differentiation protein Mcl-1 (Q07820 whole entry): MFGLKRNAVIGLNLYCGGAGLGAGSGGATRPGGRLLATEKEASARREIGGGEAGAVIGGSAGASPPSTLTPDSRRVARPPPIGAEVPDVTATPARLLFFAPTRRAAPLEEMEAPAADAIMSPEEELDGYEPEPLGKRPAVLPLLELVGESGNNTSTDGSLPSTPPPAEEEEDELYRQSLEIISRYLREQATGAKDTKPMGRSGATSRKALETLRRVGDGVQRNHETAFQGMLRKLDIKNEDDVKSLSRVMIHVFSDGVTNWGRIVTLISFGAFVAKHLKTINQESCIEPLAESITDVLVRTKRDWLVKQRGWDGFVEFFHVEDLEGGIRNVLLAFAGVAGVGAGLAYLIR
Sequence of DNA dC->dU-editing enzyme APOBEC-3G (Q9HC16 whole entry): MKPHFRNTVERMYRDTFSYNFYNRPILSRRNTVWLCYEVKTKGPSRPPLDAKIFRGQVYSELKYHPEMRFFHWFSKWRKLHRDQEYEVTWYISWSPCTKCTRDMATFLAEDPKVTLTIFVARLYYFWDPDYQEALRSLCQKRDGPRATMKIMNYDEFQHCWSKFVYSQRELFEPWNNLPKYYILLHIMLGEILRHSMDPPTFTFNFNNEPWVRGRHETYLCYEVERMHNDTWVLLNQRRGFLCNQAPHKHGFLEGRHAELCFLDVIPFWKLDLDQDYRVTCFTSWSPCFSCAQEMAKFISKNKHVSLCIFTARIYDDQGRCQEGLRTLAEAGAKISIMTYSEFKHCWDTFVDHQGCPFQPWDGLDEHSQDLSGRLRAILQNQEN
Sequence of Ion channel NompC (Q7T1G6 whole entry): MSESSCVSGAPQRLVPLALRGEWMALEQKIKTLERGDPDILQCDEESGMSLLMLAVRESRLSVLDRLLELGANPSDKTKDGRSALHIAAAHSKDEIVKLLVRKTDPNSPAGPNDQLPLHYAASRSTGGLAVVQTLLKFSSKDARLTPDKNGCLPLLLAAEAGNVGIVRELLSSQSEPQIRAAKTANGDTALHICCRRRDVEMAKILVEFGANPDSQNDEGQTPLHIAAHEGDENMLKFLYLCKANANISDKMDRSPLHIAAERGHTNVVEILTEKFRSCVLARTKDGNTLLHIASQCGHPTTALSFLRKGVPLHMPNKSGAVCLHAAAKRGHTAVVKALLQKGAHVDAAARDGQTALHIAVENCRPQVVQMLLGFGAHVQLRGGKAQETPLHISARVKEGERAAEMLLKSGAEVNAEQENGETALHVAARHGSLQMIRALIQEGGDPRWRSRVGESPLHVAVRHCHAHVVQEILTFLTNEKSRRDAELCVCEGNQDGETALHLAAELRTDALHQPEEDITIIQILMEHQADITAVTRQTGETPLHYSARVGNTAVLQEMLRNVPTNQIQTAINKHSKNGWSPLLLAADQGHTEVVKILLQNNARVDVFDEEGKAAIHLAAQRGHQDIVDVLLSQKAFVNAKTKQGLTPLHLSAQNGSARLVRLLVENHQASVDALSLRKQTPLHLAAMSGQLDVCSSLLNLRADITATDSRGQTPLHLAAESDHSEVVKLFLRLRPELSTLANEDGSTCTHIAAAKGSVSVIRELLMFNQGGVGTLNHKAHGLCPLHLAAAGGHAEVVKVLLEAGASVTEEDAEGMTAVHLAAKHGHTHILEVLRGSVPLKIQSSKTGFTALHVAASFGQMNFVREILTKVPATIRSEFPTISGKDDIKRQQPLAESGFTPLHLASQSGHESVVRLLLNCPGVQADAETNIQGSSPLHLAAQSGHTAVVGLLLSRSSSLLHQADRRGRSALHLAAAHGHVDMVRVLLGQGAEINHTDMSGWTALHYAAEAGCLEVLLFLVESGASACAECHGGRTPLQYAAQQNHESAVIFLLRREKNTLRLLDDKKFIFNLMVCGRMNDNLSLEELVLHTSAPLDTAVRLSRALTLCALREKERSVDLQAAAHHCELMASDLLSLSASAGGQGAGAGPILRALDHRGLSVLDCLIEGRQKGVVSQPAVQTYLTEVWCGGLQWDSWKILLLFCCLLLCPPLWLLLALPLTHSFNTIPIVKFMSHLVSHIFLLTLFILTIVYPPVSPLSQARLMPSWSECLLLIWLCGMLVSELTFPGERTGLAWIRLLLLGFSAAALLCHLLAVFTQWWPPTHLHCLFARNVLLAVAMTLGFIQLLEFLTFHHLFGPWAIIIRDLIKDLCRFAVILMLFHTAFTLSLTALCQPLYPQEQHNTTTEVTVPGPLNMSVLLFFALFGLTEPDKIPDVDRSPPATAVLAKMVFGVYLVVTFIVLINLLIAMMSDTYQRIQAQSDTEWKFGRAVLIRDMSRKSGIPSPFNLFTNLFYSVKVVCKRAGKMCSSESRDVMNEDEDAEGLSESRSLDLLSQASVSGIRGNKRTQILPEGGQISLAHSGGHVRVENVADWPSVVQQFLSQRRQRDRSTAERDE
Sequence of Large T antigen (P03070 whole entry): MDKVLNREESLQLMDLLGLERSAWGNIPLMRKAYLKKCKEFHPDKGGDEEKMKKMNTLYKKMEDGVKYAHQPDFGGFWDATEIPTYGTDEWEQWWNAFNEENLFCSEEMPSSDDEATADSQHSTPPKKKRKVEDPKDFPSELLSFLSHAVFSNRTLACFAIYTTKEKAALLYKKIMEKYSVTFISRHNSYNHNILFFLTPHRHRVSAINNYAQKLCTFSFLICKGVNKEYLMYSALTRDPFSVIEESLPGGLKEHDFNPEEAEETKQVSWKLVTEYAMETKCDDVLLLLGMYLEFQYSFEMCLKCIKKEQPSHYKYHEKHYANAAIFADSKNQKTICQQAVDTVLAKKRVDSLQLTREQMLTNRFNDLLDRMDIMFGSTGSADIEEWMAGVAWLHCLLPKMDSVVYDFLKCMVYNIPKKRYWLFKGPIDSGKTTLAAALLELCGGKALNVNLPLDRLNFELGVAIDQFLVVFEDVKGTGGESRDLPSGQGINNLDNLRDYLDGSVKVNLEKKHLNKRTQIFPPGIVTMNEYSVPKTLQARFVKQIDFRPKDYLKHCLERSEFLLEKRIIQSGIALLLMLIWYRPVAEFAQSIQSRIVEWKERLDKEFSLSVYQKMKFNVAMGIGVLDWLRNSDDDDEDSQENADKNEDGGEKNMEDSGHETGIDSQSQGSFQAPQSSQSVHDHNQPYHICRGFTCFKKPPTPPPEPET
Sequence of Cytochrome P450 2D6 (P10635 whole entry): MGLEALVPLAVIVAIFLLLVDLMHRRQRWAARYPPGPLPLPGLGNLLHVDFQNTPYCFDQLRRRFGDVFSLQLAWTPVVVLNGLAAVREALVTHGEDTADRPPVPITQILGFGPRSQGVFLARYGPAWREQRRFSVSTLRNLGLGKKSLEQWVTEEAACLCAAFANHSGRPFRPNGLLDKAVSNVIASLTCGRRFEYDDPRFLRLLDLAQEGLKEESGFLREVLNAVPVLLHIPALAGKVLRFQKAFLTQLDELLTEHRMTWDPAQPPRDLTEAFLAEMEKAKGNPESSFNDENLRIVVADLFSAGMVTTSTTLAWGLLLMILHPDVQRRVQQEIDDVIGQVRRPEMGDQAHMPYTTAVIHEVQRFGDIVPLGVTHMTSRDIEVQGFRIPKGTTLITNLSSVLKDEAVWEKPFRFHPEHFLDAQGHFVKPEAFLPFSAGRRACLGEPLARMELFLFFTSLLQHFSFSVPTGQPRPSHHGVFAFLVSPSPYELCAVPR
Sequence of FAD-linked sulfhydryl oxidase ALR (P55789 whole entry): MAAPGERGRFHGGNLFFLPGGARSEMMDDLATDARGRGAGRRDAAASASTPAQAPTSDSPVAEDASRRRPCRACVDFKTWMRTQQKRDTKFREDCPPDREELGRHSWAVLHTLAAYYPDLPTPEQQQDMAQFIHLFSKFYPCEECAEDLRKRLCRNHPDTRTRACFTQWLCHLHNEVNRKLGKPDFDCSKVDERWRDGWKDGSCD

O=C1c2ccccc2CCCC12N=NCC2c1cccc2ccccc12 (centres undefined)
EC50 [1]: > 29.9 µM (not active)
EC50 [2]: 3.31 µM (active)

CCOC(=O)C(CC)Sc1ccc2nnc(-c3cccnc3)n2n1 (centres undefined)
EC50 [3]: > 50 µM (active)
EC50 [4]: > 195 µM (not active)

Oc1ccc(C(=S)N2CCN(c3cccc(Cl)c3)CC2)cc1
IC50 [5]: 81 µM (active)

Cc1ccc(CCNC(=O)c2cc(S(=O)(=O)N3CCCCC3)c[nH]2)cc1
EC50 [3]: > 50 µM (active)

C=C(C)Cn1c(C)cc(C)c(S(=O)(=O)c2ccccc2C)c1=O
EC50 [1]: > 29.9 µM (not active)
EC50 [2]: 5.9 µM (active)

Cn1nc(-c2ccc(N3CCOCC3)c(NS(=O)(=O)c3ccccc3)c2)c2ccccc2c1=O
IC50 [6]: > 80 µM (inactive)

CN(C)c1ccc(C(CNC(=O)c2ccc(C#N)cc2)c2c[nH]c3ccccc23)cc1 (centres undefined)
IC50 [7]: 2.78 µM (not active)

COc1ccc(NC(=O)CN2C(=O)/C(=C3\SC(=S)N(C4CCS(=O)(=O)C4)C3=O)c3ccccc32)cc1 (centres undefined)
IC50 [7]: 3.39 µM (active)

CCOC(=O)c1sc(NC(=O)c2cc(-c3ccccc3C)nc3ccccc23)c(C#N)c1C
EC50 [8]: 36.2 µM (active)
EC50 [9]: > 150 µM (not active)
EC50 [10]: 1.04 µM (active)
AC50 [11]: 693 nM (active)
IC50 [6]: 62.1 µM (inactive)

CCOC(=O)CSc1nnc(CSc2nc(C)cc(C)n2)n1Cc1ccco1
IC50 [12]: > 64 µM (inactive)

Cc1ccc(S(=O)(=O)NCC(=O)N(CC(=O)NCC2CCCO2)C2CCCC2)cc1 (centres undefined)
IC50 [12]: > 64 µM (inactive)

COc1ccc(-n2ncc3c(N4CCC(C(N)=O)CC4)ncnc32)cc1
IC50 [6]: > 80 µM (inactive)

O=C(CSc1ccsc1[N+](=O)[O-])Nc1cccc(F)c1
IC50 [13]: 3.65 µM (active)
AC50 [14]: 16.3 µM (active)
IC50 [12]: 50 µM (inactive)
IC50 [7]: 2.92 µM (active)

CC(C)CCn1c(=O)c2ccccc2n2c(=S)[nH]nc12
IC50 [5]: 1.19 µM (active)
IC50 [15]: 14.7 µM (active)

O=C(Nc1cccc([N+](=O)[O-])c1)Nc1cccs1
EC50 [3]: > 50 µM (active)

CN(C1CCCCC1)S(=O)(=O)c1cccc(C#N)c1
EC50 [1]: > 29.9 µM (not active)
EC50 [2]: 3.58 µM (active)

Sc1nnc(Nc2ccccc2)s1
IC50 [5]: 0.892 µM (active)
AC50 [16]: 1.91 µM (active)

COc1ccc(-c2c/c(=N\CC(=O)O)c3ccccc3o2)cc1.[O-][Cl+3]([O-])([O-])O
EC50 [3]: > 50 µM (active)

COc1ccc(/C=N/n2c(S)nnc2-c2cccs2)cc1
EC50 [8]: 15.6 µM (active)
AC50 [17]: 3.55 µM (inconclusive)
EC50 [9]: > 150 µM (not active)
EC50 [10]: 7.17 µM (active)
IC50 [12]: > 64 µM (inactive)

COC(=O)C1=CCCN(C)C1 [ARECOLINE HYDROBROMIDE]
EC50 [18]: 6.68 µM (active)
EC50 [1]: > 29.9 µM (not active)
EC50 [2]: 2.26 µM (active)
